Test results from ChEMBL document CHEMBL6103644, “Efficient and Selective Biosynthesis of a Precursor-Directed FK506 Analogue: Paving the Way for Click Chemistry” (J Nat Prod, 2025).
The source made the active and inactive calls. The calls are words filed in the database; no cut-off is given here.

How the values were obtained:
[1] = Cytotoxicity against C57BL/6 mouse CD4+ T cells assessed as increase in cell death at 0.5 to 100 nM incubated for 4 days by Live/Dead staining based flow cytometry; format: toxicity; details: 96 h, 0.1 µM, dose 0.5-100 nM, time 4 day
CD4+ T cell [2] = experiment: Immunosuppressive activity in C57BL/6 mouse CD4+ T cells co-cultured with allogeneic bone marrow-derived BALB/c mouse dendritic cells assessed as inhibition of CD4+ T cell proliferation at 1 nM incubated for 4 days by CellTrace Violet staining based flow cytometry; format: functional; details: time 4.0 day
CD4+ T cell [3] = experiment: Immunosuppressive activity in C57BL/6 mouse CD4+ T cells co-cultured with allogeneic bone marrow-derived BALB/c mouse dendritic cells assessed as reduction in CD4+ T cell numbers at cell cycle 4 at 5 nM incubated for 4 days by CellTrace Violet staining based flow cytometry; format: functional; details: time 4.0 day
[4] = Cytotoxicity against C57BL/6 mouse CD4+ T cells assessed as increase in cell death at >10 nM incubated for 4 days by Live/Dead staining based flow cytometry; format: toxicity; details: 96 h, 0.01 µM, time 4 day
[5] = Cytotoxicity against C57BL/6 mouse CD4+ T cells assessed as increase in cell death at 5 nM incubated for 4 days by Live/Dead staining based flow cytometry; format: toxicity; details: 96 h, 0.005 µM, time 4 day

| SMILES | Activity [1] | inhibition (CD4+ T cell [2]) | Activity (CD4+ T cell [3]) | Activity [4] | Activity [5] |
| --- | --- | --- | --- | --- | --- |
| C=CC[C@@H]1/C=C(\C)C[C@H](C)C[C@H](OC)[C@H]2O[C@@](O)(C(=O)C(=O)N3CCCC[C@H]3C(=O)O[C@H](/C(C)=C/[C@@H]3CC[C@@H](O)[C@H](OC)C3)[C@H](C)[C@@H](O)CC1=O)[C@H](C)C[C@@H]2OC [TACROLIMUS ANHYDROUS] | Toxic | Active | – | – | – |
| C#CC[C@@H]1/C=C(\C)C[C@H](C)C[C@H](OC)[C@H]2O[C@@](O)(C(=O)C(=O)N3CCCC[C@H]3C(=O)O[C@H](/C(C)=C/[C@@H]3CC[C@@H](O)[C@H](OC)C3)[C@H](C)[C@@H](O)CC1=O)[C@H](C)C[C@@H]2OC | – | – | Active | Toxic | Non-toxic |
